What was measured:
[1] = format: physicochemical
Description: Subject to substituent at the heterocyclic moiety, dyes of formulae (A) and (B) proposed are distinguished by a spectral range of excitation and fluorescence, by the total electrical charge, and water solubility (Table 1).

[2] = Quantum efficiency of fluorescence, measured versus a reference dye; format: physicochemical
Protocol: For all indodicarbocyanine dyes (I) (A1) - (A30) and (B1) - (B7) of the invention, there are determined the quantum efficiency of fluorescence in methanol and in aqueous phosphate buffered saline (Table 1, Fig. 3). The measurements are performed versus dyes of formula (I) (R1= -CH3, R2= R6= -SO3^-; R3= -(CH2)5COOH, R4= -C2H5, R5= -H) whose quantum efficiency of fluorescence in PBS is 0.27 (Mader O., K. Reider, H.-J. Egelhaaaf, R, Fischer, R. Brock, Structure Properties of Pentamethine Indocyanine Dyes: Identification of New Dyes for Life Science Applications. Bioconjugate Chem, 2004, vol. 15, pp. 70-78). In methanol, dyes (A10, A22, A25, A29, A30) have the upper-range of quantum efficiency of fluorescence (Φ ∼ 0.3), but in PBS, dyes (A10, A22, A25, A29, A30) have the maximal Φ -value.

[3] = Relative efficiency of fluorescence / absolute sensitivity of label, normalized to dye A30 in PBS; format: physicochemical; conditions: for Sensitivity of record 635/ 670: excitation 635 nm, record 670 nm; for Sensitivity of record 655/ 690: excitation 655 nm, record 690 nm; for Sensitivity of record max/ max: excitation and record in absorption and fluorescence maxima, ε*Φ normalized to A30 in PBS
Description: The data obtained were as follows: • on excitation and record in absorption and fluorescence maxima, the relative efficiency of fluorescence exceeds 0.80 for dyes (A10), (A22), (A23), (A25), and (A30) in methanol and for dyes (A22), (A25), and (A30) in PBS (Table 1, Fig. 4), whereas for dyes of formula (I) (R1 = -CH3, R2= R6= -SO3^-; R3= -(CH2)5COOH, R4= -C2H5; R5= -H) the values are 0.69 in methanol and 0.67 in PBS; • on excitation at wavelength 655 nm and record at 690 nm, the relative efficiency of fluorescence exceeds 0.25 for dyes (A25) and (A30) in methanol and is higher than 0.18 for dyes (A24) and (A30) in PBS (Table 1, Fig. 5), whereas for dyes of formula (I) (R1 = -CH3, R2 = R6= -SO3^-; R3= -(CH2)5COOH, R4= -C2H5; R5= -H) the values are 0.18 in methanol and 0.11 in PBS; • on excitation at wavelength 635 nm and record at 670 nm, the relative efficiency of fluorescence exceeds 0.50 for dyes (A1), (A11), (A23) in methanol and is higher than 0.45 for dyes (A22), (A25), and (A30) in PBS (Table 1, Fig. 6), whereas for dyes of formula (I) (R1= -CH3, R2= R6= -SO3^-; R3= -(CH2)5COOH, R4= -C2H5; R5= -H) the values are 0.44 in methanol and 0.38 in PBS.
Term sensitivity of fluorescent analysis is defined by the absolute sensitivity of label that may be represented as the product of molar extinction coefficient by quantum efficiency of fluorescence (ε*Φ). Thus, there are determined the absolute sensitivity of indodicarbocyanines (A1-A30, B1-B7) in appropriate absorption and fluorescence maxima in methanol and in aqueous phosphate buffered saline. The values are normalized to the maximal value obtained for dye (A30) in PBS (Table 1). In methanol, dyes (A10, A22, A23, A25, A30) have the upper-range of absolute sensitivity, but in PBS, dyes (A10, A22, A25, A29, A30) have the maximal values of sensitivity (Fig. 4).
To determine the most appropriate dyes for instrument setting, there are measured the relative efficiency of fluorescence of dyes at wavelength of excitation and record of the instrument (655 nm. / 690 nm). The maximal values appear to be specific to dyes (A25) and (A30) in methanol, and to dyes (A19, A22, A25, A29, A30) in PBS (Table 1, Fig. 5).
There are also measured the relative efficiency of fluorescence at wavelength of excitation and record of the instrument (635 nm / 670 nm). The maximal values appear to be specific to dyes (A1, A10, A11, A23) in methanol, and to dyes (A10, A22, A25, A29, A30) in PBS (Table 1, Fig. 6).

[4] = Molar extinction coefficient in methanol and PBS; format: physicochemical; parameters: ε·10^-5: unit not given here
Protocol: For all indodicarbocyanine dyes (I) (A1) - (A30) and (B1) - (B7) of the invention, there are determined the molar extinction coefficients in methanol and in aqueous phosphate buffered saline (PBS) (10 mM potassium phosphate buffer, sodium chloride concentration is 0.9%, pH 7.4). In methanol, indodicarbocyanine (A1, A8, A10-A12, A17, A23) has the upper-range of molar extinction coefficient (ε >[…]). In aqueous phosphate buffered saline (PBS), dyes (A10, A23, A30) have the maximal ε-value (Fig. 2).

[5] = Absorption and fluorescence maxima of the dyes; format: physicochemical
Description: An insertion of methyl group at 5- and 7-positions of indolenyne cycle produces a bathochromic shift in the absorption and fluorescent spectra. As to the rest sulfur containing dyes, the spectral characteristics thereof appear to be in the same range (between about λmax 648 nm and λem 669 nm) (Fig. 1),

Compound | water solubility [1] | Φ (quantum efficiency of fluorescence) ([2]; MeOH) | Sensitivity of record 635/ 670 ([3]; MeOH) | Sensitivity of record 655/ 690 ([3]; MeOH) | Sensitivity of record max/ max ([3]; MeOH) | Sensitivity of record 635/ 670 ([3]; PBS) | Sensitivity of record 655/ 690 ([3]; PBS) | Sensitivity of record max/ max ([3]; PBS) | ε·10^-5 ([4]; MeOH) | ε·10^-5 ([4]; PBS (10 mM potassium phosphate buffer, 0.9% sodium chloride, pH 7.4)) | Φ (quantum efficiency of fluorescence) ([2]; PBS) | λmax^abs ([5]; MeOH) [nm] | λmax^em ([5]; MeOH) [nm] | λmax^abs ([5]; PBS) [nm] | λmax^em ([5]; PBS) [nm]
5,5'-disulfo-N,N'-di(4-sulfobutyl)-3-(4-carboxybutyl)-3,3',3'-trimethylindodicarbocyanine, trisodium salt [A30] | very good water solubility | ~0.3 | – | – | – | – | – | – | – | – | – | – | – | – | –
CCN1/C(=C/C=C/C=C/C2=[N+](CC)c3ccccc3C2(C)C)C(C)(CCCCC(=O)O)c2cc(S(=O)(=O)[O-])ccc21 (centres unmarked) [A9, N,N'-diethyl-3-(4-carboxybutyl)-5-sulfo-3,3',3'-trimethylindodicarbocyanine] | – | 0.23 | 0.424 | 0.124 | 0.627 | 0.229 | 0.052 | 0.385 | 2.07±0.03 | 1.91±0.02 | 0.15 | 648 | 663 | 646 | 659
CC1(C)C(=CC=CC=CC2=[N+](CCCCS(=O)(=O)[O-])c3ccc(CCC(=O)O)cc3C2(C)C)N(CCCCS(=O)(=O)[O-])c2ccc(S(=O)(=O)[O-])cc21.[Na+].[Na+] [B7, N,N'-disulfobutyl-5-carboxyethyl-5'-sulfo-3,3,3',3'-tetramethylindodicarbocyanine, disodium salt] | very good water solubility | – | – | – | – | – | – | – | – | – | – | – | – | – | –

— patent EP2157088A1, “INDICYANINE DYES AND THE DERIVATIVES THEREOF FOR ANALYSING BIOLOGICAL MICROMOLECULES” (UCHREZHDENIE ROSSIISKOI AKADEMII NAUK INSTITUT …, priority 2007, dated 2008)
